Values of other authors as cited in patent US8097644B2, “Indole compounds having sphingosine-1-phosphate (S1P) receptor antagonist” (Allergan, Inc., priority 2006, dated 2012).

Legend:
perfused porcine eyes = perfused porcine eyes (IOVS 45, 2263; 2004)
[1] = system: cardiac G protein-gated potassium channel IKACh; settings: whole-cell recordings

CCCCCCCCCCCCC/C=C/[C@@H](O)[C@@H](N)COP(=O)(O)O [Example S1P, Sphingosine-1-Phosphate]
decrease of outflow facility (perfused porcine eyes): > 30%

CCCCCCCCc1ccc(CC[C@](N)(CO)COP(=O)(O)O)cc1 [FTY720-P]
myocytes responding to acetylcholine in which an inwardly rectifying potassium current was evoked [1]: ~90%
